Laboratory results: US9273095B2, “Antibiotic peptide and preparation method therefor and application therefor” (priority 2011, dated 2016)
Marks after values point to notes of the source that are not given here. Non-standard residues stand in square brackets, D forms with d. Residues, ends and D or L forms follow the SMILES beside them.

Experiments:
Pseudomonas aeruginosa = assay: Therapeutic test of injection on mice with systemic infection, survival time; format: in vivo, ICR mice; details: for Mean survival Time: observed fourteen days; for Mean survival Time / Mortality of mice in different days after infection: n = 10
Text: (§1) There are 30 male and 30 female ICR mice with the weight ranging from 18 g to 22 g. According to their weight, they are randomly divided into 6 groups of 10 mice: blank control group, negative control group, Levofloxacin positive control group, PL-13 (SEQ ID NO: 1) high dose group, PL-13 (SEQ ID NO: 1) middle dose group and PL-13 (SEQ ID NO: 1) low dose group. Each group is raised in the same plastic case. With trinitrophenal marking method, all the mice are raised with ordinary animal feeds in the ordinary animal houses and they can drink water freely. Alternating of light and dark is conducted every 12 hours.
(§2) 2. Infected Strains: Pseudomonas aeruginosa and Staphylococcus aureus
(§3) PL-18 (SEQ ID NO: 1) freeze-dried powder injections (supplied by Jiangsu ProteLight Pharmaceutical & Biotechnology Co., LTD.), Levofloxacin Hydrochloride and Sodium Chloride Injection (supplied by Yangtze River Pharmaceutical Group) and 0.9% Sodium Chloride Injection (supplied by Chifeng Rongjitang Pharmaceutical CO., Ltd.)
(§4) (1) The preparation of bacterial suspension is the same as above.
(§5) (2) The Pseudomonas aeruginosa suspension cultured overnight is diluted to 1×10^9CFU/ml. The Staphylococcus aureus suspension cultured overnight is diluted to 1×10^8CFU/ml. They are all applied in reserve.
(§6) (3) Except the blank control group, every other mouse is injected with 0.2 ml Pseudomonas aeruginosa suspension with the concentration of 1×10^9CFU/ml or 0.2 ml Staphylococcus aureus suspension with the concentration of 1×10^8CFU/ml intraperitoneally to make model.
(§7) (4) Administration: Inject the drugs according to weight right after the model is ready. All the groups excepting the blank and the negative infected group are injected with different dosage of different injections through caudal vena twice a day successively for three days, and they are observed for fourteen days.
(§8) (5) Observe death of the animals and record their survival time.

Staphylococcus aureus = assay: as above; format: in vivo, ICR mice; details: for Mean survival Time: observed fourteen days; for Mean survival Time / Mortality of mice in different days after infection: n = 10
Text: as §1, §2, §3, §4, §5, §6, §7, §8

[1] = 30 mg/kg twice a day for three days
[2] = day 1, 30 mg/kg twice a day for three days
[3] = day 2, 30 mg/kg twice a day for three days
[4] = day 3, 30 mg/kg twice a day for three days
[5] = day 4, 30 mg/kg twice a day for three days
[6] = day 5, 30 mg/kg twice a day for three days
[7] = 0.2 mg/kg (low) caudal vena twice a day for three days
[8] = 1 mg/kg (middle) caudal vena twice a day for three days
[9] = 5 mg/kg (high) caudal vena twice a day for three days
[10] = day 1, 0.2 mg/kg (low) caudal vena twice a day for three days
[11] = day 1, 1 mg/kg (middle) caudal vena twice a day for three days
[12] = day 1, 5 mg/kg (high) caudal vena twice a day for three days
[13] = day 2, 0.2 mg/kg (low) caudal vena twice a day for three days
[14] = day 2, 1 mg/kg (middle) caudal vena twice a day for three days
[15] = day 2, 5 mg/kg (high) caudal vena twice a day for three days
[16] = day 3, 0.2 mg/kg (low) caudal vena twice a day for three days
[17] = day 3, 1 mg/kg (middle) caudal vena twice a day for three days
[18] = day 3, 5 mg/kg (high) caudal vena twice a day for three days
[19] = day 4, 0.2 mg/kg (low) caudal vena twice a day for three days
[20] = day 4, 1 mg/kg (middle) caudal vena twice a day for three days
[21] = day 4, 5 mg/kg (high) caudal vena twice a day for three days
[22] = day 5, 0.2 mg/kg (low) caudal vena twice a day for three days
[23] = day 5, 1 mg/kg (middle) caudal vena twice a day for three days
[24] = day 5, 5 mg/kg (high) caudal vena twice a day for three days

C[C@H]1COc2c(N3CCN(C)CC3)c(F)cc3c(=O)c(C(=O)O)cn1c23 [Levofloxacin, levofloxacin, reference compound]
6.4** day: Mean survival Time (Pseudomonas aeruginosa; [1])
5: Mortality of mice in different days after infection (Staphylococcus aureus; [2])
0: Mortality of mice in different days after infection (Pseudomonas aeruginosa; [4]) | Mortality of mice in different days after infection (Pseudomonas aeruginosa; [5]) | Mortality of mice in different days after infection (Pseudomonas aeruginosa; [6]) | Mortality of mice in different days after infection (Staphylococcus aureus; [4]) | Mortality of mice in different days after infection (Staphylococcus aureus; [5]) | Mortality of mice in different days after infection (Staphylococcus aureus; [6])
5.4** day: Mean survival Time (Staphylococcus aureus; [1])
2: Mortality of mice in different days after infection (Pseudomonas aeruginosa; [3]) | Mortality of mice in different days after infection (Staphylococcus aureus; [3])
4: Mortality of mice in different days after infection (Pseudomonas aeruginosa; [2])

CC(=O)N[C@H](Cc1ccccc1)C(=O)N[C@H](CCCCN)C(=O)N[C@H](CCCCN)C(=O)N[C@H](CC(C)C)C(=O)N[C@H](CCCCN)C(=O)N[C@H](CCCCN)C(=O)N[C@H](CC(C)C)C(=O)N[C@H](Cc1ccccc1)C(=O)N[C@H](CO)C(=O)N[C@H](CCCCN)C(=O)N[C@H](CC(C)C)C(=O)N[C@H](Cc1c[nH]c2ccccc12)C(=O)N[C@H](CC(N)=O)C(=O)N[C@H](Cc1c[nH]c2ccccc12)C(=O)N[C@H](CCCCN)C(N)=O [PL-18] (Ac-[dF][dK][dK][dL][dK][dK][dL][dF][dS][dK][dL][dW][dN][dW][dK]-NH2)
0: Mortality of mice in different days after infection (Pseudomonas aeruginosa; [10]) | Mortality of mice in different days after infection (Pseudomonas aeruginosa; [11]) | Mortality of mice in different days after infection (Pseudomonas aeruginosa; [12]) | Mortality of mice in different days after infection (Pseudomonas aeruginosa; [24]) | Mortality of mice in different days after infection (Staphylococcus aureus; [12])
7.3** day: Mean survival Time (Staphylococcus aureus; [8])
very good: anti-infection effect (in words) (Pseudomonas aeruginosa; high, middle and low dose injection, systemic infection of Pseudomonas aeruginosa) | anti-infection effect (in words) (Staphylococcus aureus; high, middle and low dose injection, systemic infection of Staphylococcus aureus)
6.3** day: Mean survival Time (Staphylococcus aureus; [7])
6.7** day: Mean survival Time (Pseudomonas aeruginosa; [7])
2: Mortality of mice in different days after infection (Pseudomonas aeruginosa; [13]) | Mortality of mice in different days after infection (Pseudomonas aeruginosa; [17]) | Mortality of mice in different days after infection (Pseudomonas aeruginosa; [18]) | Mortality of mice in different days after infection (Pseudomonas aeruginosa; [19]) | Mortality of mice in different days after infection (Pseudomonas aeruginosa; [20]) | Mortality of mice in different days after infection (Pseudomonas aeruginosa; [21]) | Mortality of mice in different days after infection (Pseudomonas aeruginosa; [22]) | Mortality of mice in different days after infection (Staphylococcus aureus; [13]) | Mortality of mice in different days after infection (Staphylococcus aureus; [14]) | Mortality of mice in different days after infection (Staphylococcus aureus; [19]) | Mortality of mice in different days after infection (Staphylococcus aureus; [24])
7.7** day: Mean survival Time (Pseudomonas aeruginosa; [8])
1: Mortality of mice in different days after infection (Pseudomonas aeruginosa; [14]) | Mortality of mice in different days after infection (Pseudomonas aeruginosa; [15]) | Mortality of mice in different days after infection (Pseudomonas aeruginosa; [16]) | Mortality of mice in different days after infection (Pseudomonas aeruginosa; [23]) | Mortality of mice in different days after infection (Staphylococcus aureus; [10]) | Mortality of mice in different days after infection (Staphylococcus aureus; [11]) | Mortality of mice in different days after infection (Staphylococcus aureus; [15]) | Mortality of mice in different days after infection (Staphylococcus aureus; [16]) | Mortality of mice in different days after infection (Staphylococcus aureus; [17]) | Mortality of mice in different days after infection (Staphylococcus aureus; [18]) | Mortality of mice in different days after infection (Staphylococcus aureus; [20]) | Mortality of mice in different days after infection (Staphylococcus aureus; [21]) | Mortality of mice in different days after infection (Staphylococcus aureus; [22]) | Mortality of mice in different days after infection (Staphylococcus aureus; [23])
8.6** day: Mean survival Time (Pseudomonas aeruginosa; [9])
9.9** day: Mean survival Time (Staphylococcus aureus; [9])
